How the values were obtained:
Experiment in all cases: relative viability (nuclei count vs DMSO), 5 days (fraction); higher = more cells survive
IMD-0354 + Phenformin = compound: O=C(Nc1cc(C(F)(F)F)cc(C(F)(F)F)c1)c1cc(Cl)ccc1O [IMD-0354] + N=C(N)NC(=N)NCCc1ccccc1 [Phenformin] (partner 250 µM)
Summary of the method: (§1)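 Values are medians from duplicate plates. Each reflects relative viability, defined as the nuclei count of treated wells over that of vehicle wells. Lung cancer cell lines in 1536-well plates were pin-tool dosed one day after seeding with one drug alone or with a fixed anchor-drug dose plus five library-drug doses (not always all listed) in √10 steps, then fixed, stained and imaged at 4× after 5 days.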

CX-5461 + Bortezomib = compound: Cc1cnc(CNC(=O)c2c(=O)c3ccc(N4CCCN(C)CC4)nc3n3c2sc2ccccc23)cn1 [CX-5461] + CC(C)C[C@H](NC(=O)[C@H](Cc1ccccc1)NC(=O)c1cnccn1)B(O)O [Bortezomib] (partner 0.002 µM)
Summary of the method: as §1

CX-5461 + Vorinostat = compound: Cc1cnc(CNC(=O)c2c(=O)c3ccc(N4CCCN(C)CC4)nc3n3c2sc2ccccc23)cn1 [CX-5461] + O=C(CCCCCCC(=O)Nc1ccccc1)NO [Vorinostat] (partner 1 µM)
Summary of the method: as §1

IMD-0354 + AZD7762 = compound: O=C(Nc1cc(C(F)(F)F)cc(C(F)(F)F)c1)c1cc(Cl)ccc1O [IMD-0354] + NC(=O)Nc1cc(-c2cccc(F)c2)sc1C(=O)N[C@H]1CCCNC1 [AZD7762] (partner 0.2 µM)
Summary of the method: as §1

Cell Line	relative viability (IMD-0354 + Phenformin; first compound 0.04 µM)	relative viability (IMD-0354 + Phenformin; first compound 0.1265 µM)	relative viability (IMD-0354 + Phenformin; first compound 0.4 µM)	relative viability (IMD-0354 + Phenformin; first compound 1.265 µM)	relative viability (IMD-0354 + Phenformin; first compound 4 µM)	relative viability (CX-5461 + Bortezomib; first compound 0.01 µM)	relative viability (CX-5461 + Bortezomib; first compound 0.03162 µM)	relative viability (CX-5461 + Bortezomib; first compound 0.1 µM)	relative viability (CX-5461 + Bortezomib; first compound 0.3162 µM)	relative viability (CX-5461 + Bortezomib; first compound 1 µM)	relative viability (CX-5461 + Vorinostat; first compound 0.01 µM)	relative viability (CX-5461 + Vorinostat; first compound 0.03162 µM)	relative viability (CX-5461 + Vorinostat; first compound 0.1 µM)	relative viability (CX-5461 + Vorinostat; first compound 0.3162 µM)	relative viability (CX-5461 + Vorinostat; first compound 1 µM)	relative viability (IMD-0354 + AZD7762; first compound 0.04 µM)	relative viability (IMD-0354 + AZD7762; first compound 0.1265 µM)	relative viability (IMD-0354 + AZD7762; first compound 0.4 µM)	relative viability (IMD-0354 + AZD7762; first compound 1.265 µM)	relative viability (IMD-0354 + AZD7762; first compound 4 µM)
COR-L23	0.466	0.373	0.263	0.108	0.0986	0.831	1.05	0.813	1.04	0.474	0.612	0.436	0.451	0.389	0.218					
ABC-1	0.227	0.207	0.224	0.197	0.194	0.297	0.282		0.206	0.313	1.2		1.02	0.442	0.394	1.26	0.98	0.522	0.257	0.331
SW 900	0.661	0.48	0.302	0.185	0.202						0.446	0.586		0.637	0.359	0.649	0.693	0.441	0.24	0.254
NCI-H1648											0.526	0.355	0.49	0.495	0.483	0.616	0.715	0.526	0.705	0.297
A549	0.23	0.106	0.0873	0.03	0.0515															
NCI-H1792	0.175	0.225	0.226	0.167	0.139	0.935	1.16	0.966	0.965	0.848						0.896	0.517	0.551	0.17	0.0979
NCI-H1703						0.31	0.378	0.318	0.337	0.154						0.124	0.0845	0.141	0.142	0.117
SW 1573	0.397	0.265	0.18	0.0898	0.103	0.952	1.22	1.03	0.924	0.763	0.726	0.668	0.116	0.15	0.214					
COR-L 105	0.659	0.462	0.39	0.183	0.211	0.841	0.701	0.492	0.385	0.416	0.929	0.872	0.728	0.71	0.599					
Calu-6						1.16	1.06	0.907	1.12	0.382										
SK-MES-1	0.747	0.583	0.422	0.356	0.241						1.22	1.22	1.13	1.19	0.654					
NCI-H2170	0.418	0.37	0.301	0.229	0.221						0.887	0.772	0.846	0.743	0.703	0.946	0.978	0.818	0.767	0.151
NCI-H2342	0.632	0.593	0.455	0.4	0.383						0.686	0.768	0.642	0.619	0.776	0.539	0.509	0.469	0.31	0.385
EBC-1						0.591	0.619	0.466	0.49	0.423										
NCI-H1299						1	0.981	1.05	1.04	0.979										
NCI-H2228	0.372	0.224	0.233	0.084	0.165	0.934	0.797	0.455	0.819	0.126	0.516	0.66	0.54	0.793	0.114					
NCI-H522	0.614	0.666	0.464	0.61	0.383						1	1.1	0.955		0.852	1.05	0.815	0.702	0.766	0.461
IA-LM						0.785	0.795	0.734	0.877	0.355	1	0.925	1.11	0.828	1.01					
LK-2	0.641	0.382	0.41	0.22	0.265						0.422	0.315	0.367	0.2	0.307	0.251	0.39		0.105	0.172
NCI-H358	0.348	0.241	0.17	0.121	0.0927						0.745	0.78	0.701	0.27	0.402	0.591	0.433	0.384	0.245	0.255
NCI-H661	0.268	0.249	0.224	0.198	0.232	0.885	0.877	0.61		0.639	0.822	0.8	0.734	0.472	0.583					
NCI-H1944	0.232	0.197	0.15	0.116	0.148						0.538	0.569	0.383	0.25	0.271	0.433	0.541	0.488	0.321	0.156
NCI-H520	0.738	0.51	0.299	0.168	0.194	0.612	0.527	0.627	0.257	0.315	0.734	0.681	0.661	0.642	0.291					
NCI-H2023	0.446	0.409	0.223	0.109	0.147	1.04	0.825		0.52	0.0872	0.564	0.355		0.15	0.0756					
NCI-H2009	0.502	0.324	0.228	0.137	0.15	1.05	1.08	0.644	0.867	0.492	0.755	0.716	0.652	0.661	0.332					

— the supplement of paper PMC10307832
